Measured values as given in patent publication US20070117743A1, “New antitumoral compounds” (priority 2003, published 2007).
Where a SMILES comes first, the peptide text is derived from it. Bridges are numbered along the chain shown (N, C = ends). [ ]: non-standard residue; d: D form. The star is where a group is joined. d(aIle) = CC[C@H](C)[C@@H](N)C(=O)O; d(aThr) = C[C@@H](O)[C@@H](N)C(=O)O; Hexanoyl(5-Me) = CC(C)CCCC(=O)*; Orn = NCCC[C@H](N)C(=O)O; Dhb = C/C=C(\N)C(=O)O

Key:
Type in all cases: cell-based, human
K-562 = experiment: SRB colorimetric assay of cell growth and viability, K-562; conditions: 48 hours exposure; for CC50: read-out: LC50 K-562
SK-BR-3 = experiment: SRB colorimetric assay of cell growth and viability, SK-BR-3; conditions: 48 hours exposure
LNCaP = experiment: SRB colorimetric assay of cell growth and viability, LNCaP; conditions: 48 hours exposure; for GI50: read-out: GI50 LN-caP; for CC50: read-out: LC50 LN-caP
SK-MEL-28 = experiment: SRB colorimetric assay of cell growth and viability, SK-MEL-28; conditions: 48 hours exposure; for CC50: read-out: LC50 MEL-28
A-549 = experiment: SRB colorimetric assay of cell growth and viability, A-549; conditions: 48 hours exposure; for GI50: read-out: GI50 A-549; for CC50: read-out: LC50 A-549
HT-29 = experiment: SRB colorimetric assay of cell growth and viability, HT-29; conditions: 48 hours exposure; for GI50: read-out: GI50 HT-29; for CC50: read-out: LC50 HT-29
DU-145 = experiment: SRB colorimetric assay of cell growth and viability, DU-145; conditions: 48 hours exposure
HeLa = experiment: SRB colorimetric assay of cell growth and viability, HeLa; conditions: 48 hours exposure; for CC50: read-out: LC50 HELA
HeLa-APL = experiment: SRB colorimetric assay of cell growth and viability, HeLa-APL; conditions: 48 hours exposure; for CC50: read-out: LC50 HELA-APL
IGROV-1 = experiment: SRB colorimetric assay of cell growth and viability, IGROV-1; conditions: 48 hours exposure
IGROV-ET = experiment: SRB colorimetric assay of cell growth and viability, IGROV-ET; conditions: 48 hours exposure; for CC50: read-out: LC50 IGROV-ET
LoVo = experiment: SRB colorimetric assay of cell growth and viability, LoVo; conditions: 48 hours exposure; for CC50: read-out: LC50 LOVO
PANC-1 = experiment: SRB colorimetric assay of cell growth and viability, PANC-1; conditions: 48 hours exposure; for CC50: read-out: LC50 PANC-1

## C/C=C1\NC(=O)[C@H](Cc2ccccc2)NC(=O)[C@@H](C(C)C)NC(=O)[C@@H]([C@@H](C)CC)NC(=O)[C@H](NC(=O)[C@H](NC(=O)[C@H](CCCN)NC(=O)[C@H]2CCCN2C(=O)[C@H](NC(=O)[C@H](CC(C)C)NC(=O)[C@@H](NC(=O)[C@H](NC(=O)CCCC(C)C)C(C)C)[C@@H](C)O)C(C)C)[C@@H](C)CC)[C@@H](C)OC(=O)[C@H](C(C)C)NC1=O [Compound 45, [Leu^11]-KF] ({Hexanoyl(5-Me)}-[dV]TL[dV][dP][Orn][d(aIle)][d(aThr)][d(aIle)][dV]F[Dhb]V; ester 8-C)
K-562
  GI50: 1490 nM
  TGI K-562: 3.10E−06 Molar
  CC50: ≥ 6400 nM
SK-BR-3
  GI50: 163 nM
  LC50: 1680 nM
  TGI SK-BR-3: 4.10E−07 Molar
LNCaP
  TGI LN-caP: 2.35E−06 Molar
  GI50: 1020 nM
  CC50: 5440 nM
SK-MEL-28
  GI50: 1030 nM
  TGI MEL-28: 2.05E−06 Molar
  CC50: 4110 nM
A-549
  TGI A-549: 1.90E−06 Molar
  GI50: 925 nM
  CC50: 3930 nM
HT-29
  TGI HT-29: 1.17E−06 Molar
  GI50: 316 nM
  CC50: 3660 nM
DU-145
  GI50: 731 nM
  LC50 (concentration causing 50% net cell kill): 3540 nM
  TGI DU-145: 1.61E−06 Molar
HeLa
  GI50: 938 nM
  TGI HELA: 2.16E−06 Molar
  CC50: 4980 nM
HeLa-APL
  GI50: 912 nM
  TGI HELA-APL: 1.94E−06 Molar
  CC50: 4130 nM
IGROV-1
  GI50: 332 nM
  LC50 (concentration causing 50% net cell killing): 4020 nM
  TGI IGROV: 1.23E−06 Molar
IGROV-ET
  GI50: 421 nM
  TGI IGROV-ET: 1.30E−06 Molar
  CC50: 3690 nM
LoVo
  GI50: 113 nM
  TGI LOVO: 2.32E−07 Molar
  CC50: 476 nM
PANC-1
  GI50: 2320 nM
  TGI PANC-1: 6.70E−06 Molar
  CC50: 6700 nM

## C/C=C1\NC(=O)[C@H](Cc2ccccc2)NC(=O)[C@@H](C(C)C)NC(=O)[C@@H]([C@@H](C)CC)NC(=O)[C@H](NC(=O)[C@H](NC(=O)[C@H](CCCN)NC(=O)[C@H]2CCCN2C(=O)[C@H](NC(=O)[C@@H](NC(=O)[C@@H](NC(=O)[C@H](NC(=O)Cc2cc(F)cc(F)c2)C(C)C)[C@@H](C)O)C(C)C)C(C)C)[C@@H](C)CC)[C@@H](C)OC(=O)[C@H](C(C)C)NC1=O [Compound 22, [3,5-dFPhAc^14]-KF]
K-562
  GI50: 6580 nM
  TGI K-562: 6.58E−06 Molar
  CC50: 6580 nM
SK-BR-3
  GI50: 464 nM
  LC50: 3640 nM
  TGI SK-BR-3: 1.45E−06 Molar
LNCaP
  TGI LN-caP: 6.58E−06 Molar
  GI50: 1640 nM
  CC50: 6580 nM
SK-MEL-28
  GI50: 2500 nM
  TGI MEL-28: 6.58E−06 Molar
  CC50: 6580 nM
A-549
  TGI A-549: 2.16E−06 Molar
  GI50: 1170 nM
  CC50: 3990 nM
HT-29
  TGI HT-29: 1.94E−06 Molar
  GI50: 888 nM
  CC50: 4250 nM
DU-145
  GI50: 1430 nM
  LC50 (concentration causing 50% net cell kill): 6580 nM
  TGI DU-145: 6.58E−06 Molar
HeLa
  GI50: 1290 nM
  TGI HELA: 3.28E−06 Molar
  CC50: 6580 nM
HeLa-APL
  GI50: 1960 nM
  TGI HELA-APL: 6.58E−06 Molar
  CC50: 6580 nM
IGROV-1
  GI50: 980 nM
  LC50 (concentration causing 50% net cell killing): 4570 nM
  TGI IGROV: 2.12E−06 Molar
IGROV-ET
  GI50: 1070 nM
  TGI IGROV-ET: 2.32E−06 Molar
  CC50: 5010 nM
LoVo
  GI50: 288 nM
  TGI LOVO: 1.06E−06 Molar
  CC50: 3110 nM
PANC-1
  GI50: 5450 nM
  TGI PANC-1: 6.58E−06 Molar
  CC50: 6580 nM

## C/C=C1\NC(=O)[C@H](Cc2ccccc2)NC(=O)[C@@H](C(C)C)NC(=O)[C@@H]([C@@H](C)CC)NC(=O)[C@H](NC(=O)[C@H](NC(=O)[C@H](CCCN)NC(=O)[C@H]2CCCN2C(=O)[C@H](NC(=O)[C@@H](NC(=O)[C@@H](NC(=O)[C@H](NC(=O)c2ccc(C(F)(F)F)cc2)C(C)C)[C@@H](C)O)C(C)C)C(C)C)[C@@H](C)CC)[C@@H](C)OC(=O)[C@H](C(C)C)NC1=O [Compound 21, [p-CF3Bza^14]-KF]
K-562
  GI50: 6500 nM
  TGI K-562: 6.50E−06 Molar
  CC50: 6500 nM
SK-BR-3
  GI50: 111 nM
  LC50: 543 nM
  TGI SK-BR-3: 2.46E−07 Molar
LNCaP
  TGI LN-caP: 1.30E−06 Molar
  GI50: 339 nM
  CC50: 3520 nM
SK-MEL-28
  GI50: 897 nM
  TGI MEL-28: 1.85E−06 Molar
  CC50: 3800 nM
A-549
  TGI A-549: 4.06E−07 Molar
  GI50: 146 nM
  CC50: 1680 nM
HT-29
  TGI HT-29: 2.59E−07 Molar
  GI50: 114 nM
  CC50: 585 nM
DU-145
  GI50: 241 nM
  LC50 (concentration causing 50% net cell kill): 3280 nM
  TGI DU-145: 1.22E−06 Molar
HeLa
  GI50: 319 nM
  TGI HELA: 1.28E−06 Molar
  CC50: 3910 nM
HeLa-APL
  GI50: 504 nM
  TGI HELA-APL: 1.48E−06 Molar
  CC50: 3670 nM
IGROV-1
  GI50: 177 nM
  LC50 (concentration causing 50% net cell killing): 3450 nM
  TGI IGROV: 7.22E−07 Molar
IGROV-ET
  GI50: 169 nM
  TGI IGROV-ET: 7.61E−07 Molar
  CC50: 2830 nM
LoVo
  GI50: 91.7 nM
  TGI LOVO: 1.92E−07 Molar
  CC50: 404 nM
PANC-1
  GI50: 1300 nM
  TGI PANC-1: 3.11E−06 Molar
  CC50: 6500 nM

## C/C=C1\NC(=O)[C@H](Cc2ccccc2)NC(=O)[C@@H](C(C)C)NC(=O)[C@@H]([C@@H](C)CC)NC(=O)[C@H](NC(=O)[C@H](NC(=O)[C@H](CCCN)NC(=O)[C@H]2CCCN2C(=O)[C@H](NC(=O)[C@H](Cc2ccccc2)NC(=O)[C@@H](NC(=O)[C@H](NC(=O)CCCC(C)C)C(C)C)[C@@H](C)O)C(C)C)[C@@H](C)CC)[C@@H](C)OC(=O)[C@H](C(C)C)NC1=O [Compound 43, [Phe^11]-KF] ({Hexanoyl(5-Me)}-[dV]TF[dV][dP][Orn][d(aIle)][d(aThr)][d(aIle)][dV]F[Dhb]V; ester 8-C)
K-562
  GI50: 1230 nM
  TGI K-562: 2.18E−06 Molar
  CC50: 3850 nM
SK-BR-3
  GI50: 119 nM
  LC50: 634 nM
  TGI SK-BR-3: 2.75E−07 Molar
LNCaP
  TGI LN-caP: 1.97E−06 Molar
  GI50: 852 nM
  CC50: 4550 nM
SK-MEL-28
  GI50: 780 nM
  TGI MEL-28: 1.66E−06 Molar
  CC50: 3570 nM
A-549
  TGI A-549: 1.40E−06 Molar
  GI50: 521 nM
  CC50: 3410 nM
HT-29
  TGI HT-29: 2.73E−07 Molar
  GI50: 141 nM
  CC50: 531 nM
DU-145
  GI50: 476 nM
  LC50 (concentration causing 50% net cell kill): 3220 nM
  TGI DU-145: 1.34E−06 Molar
HeLa
  GI50: 397 nM
  TGI HELA: 1.32E−06 Molar
  CC50: 3950 nM
HeLa-APL
  GI50: 793 nM
  TGI HELA-APL: 1.77E−06 Molar
  CC50: 3930 nM
IGROV-1
  GI50: 241 nM
  LC50 (concentration causing 50% net cell killing): 3680 nM
  TGI IGROV: 7.67E−07 Molar
IGROV-ET
  GI50: 233 nM
  TGI IGROV-ET: 6.28E−07 Molar
  CC50: 2530 nM
LoVo
  GI50: 105 nM
  TGI LOVO: 2.22E−07 Molar
  CC50: 471 nM
PANC-1
  GI50: 1790 nM
  TGI PANC-1: 4.86E−06 Molar
  CC50: 6550 nM
